One block for each molecule: values may come before it.
Key:
Solubility experiment = format: physicochemical; conditions: comparison in words, values not given
Protocol: The solubility of the present invention was determined using an Agilent 1200 High Performance Liquid Chromatograph DAD/VWD detector with an Agilent XDB-C18 model (4.6×50 mm, 5 μm). The detection wavelength was 266 nm, the flow rate was 1.0 mL/min, and the column temperature was 35° C. The mobile phase A was acetonitrile−0.01 M ammonium acetate=10:90 (V:V), and the analysis method was acetonitrile−mobile phase A=70:30 (V:V). The running time was 10 minutes.

[1] = Stability: illumination experiment; format: physicochemical; conditions: for Appearance / Purity: Illumination; for Purity: HPLC
Protocol: (3) Illumination experiment: a batch of the test sample was added into a flat weighing bottle, divided into ≤5mm thick thin layer. The bottle was opened and placed in a light box (with UV lamp) under the condition of illuminance of 4500±500 lx and ultraviolet light ≥0.7w/m^2 for 30 days. Samples were taken on the 6th, 13th, and 30th day, the purities of the samples were determined by HPLC.

[2] = Stability: accelerated experiment; format: physicochemical; conditions: for Appearance / Purity / Moisture content: 40 ± 2° C./75% ± 5% RH; for Purity: HPLC; for Moisture content: by TGA
Protocol: (4) Accelerated experiment: appropriate amount of the test sample was packed with a single-layer PE and aluminum foil, the sample was placed at 40±2° C./75%±5% RH for 6 months. Samples were taken on the 1st, 2nd, 3rd and 6th month. The color of the samples were observed, the purities of the samples were determined by HPLC, and the moisture content was determined by TGA.

[3] = Hygroscopicity experiment (dynamic moisture adsorption, DVS); format: physicochemical
Protocol: The hygroscopicity of the present invention was measured by a DVS INT-Std dynamic moisture and gas adsorption analyzer from Surface Measurement Systems, UK. The humidity test range was 0%-95%, the airflow rate was 200 mL/min, and the temperature was 25° C. One test point was taken for every 5% increase in humidity.
An appropriate amount of the test sample was taken, the hygroscopicity was tested by dynamic moisture adsorption device.

[4] = Pharmacokinetic experiment of the crystal form in Beagle dogs; format: in vivo
Protocol: The crystal form of the compound of formula (I) of the present invention is filled into capsules for oral administration.
8-12 kg male Beagle dogs were taken, and 3 as a group. Capsules containing the test sample were orally administered at a dose of 10 mg/kg and the bloods were collected at time points of 0.25, 0.5, 1.0, 2.0, 4.0, 6.0, 8.0 and 24 h. Standard curve was plotted based on concentrations of the samples in a suitable range, the concentration of the test sample in the plasma sample was measured and quantified by AB SCIEX API4000 LC-MS/MS at MRM mode. Pharmacokinetic parameters were calculated according to drug concentration-time curve using a noncompartmental method by WinNonLin 6.3 software.

[5] = Stability: high-humidity experiment; format: physicochemical; conditions: for Appearance / Purity: High humidity (RH92.5%); for Purity: HPLC
Protocol: (§1) (2) High-humidity experiment: a batch of the test sample was added into a flat weighing bottle, divided into ≤5 mm thick thin layer. The bottle was placed at 25° C. and RH for 90%±5% for 30 days. Samples were taken on the 6th, 10th, and 30th day, and tested according to the key stability inspection items: the color of the samples were observed, the purities of the samples were determined by HPLC.

[6] = Crystal form stability on standing under normal temperature and pressure; format: physicochemical; conditions: normal temperature and pressure conditions
[7] = Stability: high-temperature experiment; format: physicochemical; conditions: for Purity: HPLC
Protocol: as §1, with “(1) High-temperature” for “(2) High-humidity”, “appropriate amount” for “a batch”, “60° C.±2°” for “25°”, “C.” for “C. and RH for 90%±5%”

[8] = dog, plasma, po, male Beagle dogs, capsules orally, 10 mg/kg
[9] = 0 day (start, common to all conditions of Table 2)
[10] = High temperature (60° C.), 6th day
[11] = High temperature (60° C.), 10th day
[12] = High temperature (60° C.), 30th day

solubility compared with crystal form II (Solubility experiment): better solubility | Appearance ([1]; 6th day): off-white | Purity ([1]; 6th day): 99.77% | Appearance ([1]; 13th day): off-white | Purity ([1]; 13th day): 99.77% | Appearance ([1]; 30th day): off-white | Purity ([1]; 30th day): 99.72% | change of appearance and purity ([1]; lighting conditions, 30 days): no obvious changes | Appearance ([2]; 0 month): off-white | Purity ([2]; 0 month): 99.78% | Moisture content ([2]; 0 month): 0.04% | Appearance ([2]; 1st month): off-white | Purity ([2]; 1st month): 99.77% | Moisture content ([2]; 1st month): 0.06% | Appearance ([2]; 2nd month): off-white | Purity ([2]; 2nd month): 99.78% | Moisture content ([2]; 2nd month): 0.07% | Appearance ([2]; 3rd month): off-white | Purity ([2]; 3rd month): 99.78% | Moisture content ([2]; 3rd month): 0.08% | Appearance ([2]; 6th month): off-white | Purity ([2]; 6th month): 99.78% | Moisture content ([2]; 6th month): 0.12% | change of appearance, purity and moisture content ([2]; accelerated experimental conditions (40±2° C./75%±5% RH, 6 months)): no obvious changes | hygroscopicity feature ([3]; Chinese Pharmacopoeia 2015 General Principle 9103 classes (Table 5)): lightly hygroscopic | Weight gain at 60% relative humidity ([3]; DVS, 25° C., 60% relative humidity): 0.27% | Weight gain at 80% relative humidity ([3]; DVS, 25° C., 80% relative humidity): 0.38% | Weight gain at 95% relative humidity ([3]; DVS, 25° C., 95% relative humidity): 0.57% | exposure in beagle dogs ([4]; beagle dogs, oral capsules 10 mg/kg, conclusion from Table 1): larger exposure | AUC(0-t) [4, 8]: 9300 ng·h/mL | Cmax [4, 8]: 2810 ng/mL | Tmax [4, 8]: 1.17 h | Appearance ([5]; 6th day): off-white | Purity ([5]; 6th day): 99.78% | Appearance ([5]; 10th day): off-white | Purity ([5]; 10th day): 99.77% | Appearance ([5]; 30th day): off-white | Purity ([5]; 30th day): 99.76% | change of appearance and purity ([5]; high humidity (25° C., RH 90%±5%), 30 days): no obvious changes | crystal transformation on standing ([6]; listed as crystal form I): does not undergo crystal transformation | Appearance [7, 9]: off-white | Purity [7, 9]: 99.76% | Appearance [7, 10]: off-white | Purity [7, 10]: 99.77% | Appearance [7, 11]: off-white | Purity [7, 11]: 99.78% | Appearance [7, 12]: off-white | Purity [7, 12]: 99.77% | change of appearance and purity ([7]; high temperature (60° C.), 30 days): no obvious changes
Structure (SMILES): Cn1c(=O)c(C(=O)NCC(=O)O)c(O)c2ccc(Oc3ccccc3)cc21 [Example 1, 2-(4-hydroxy-1-methyl-2-oxo-7-phenoxy-1,2-dihydroquinoline-3-carboxamido)acetic acid]

crystal transformation on standing [6]: easy to undergo crystal transformation
Structure (SMILES): Cn1c(=O)c(C(=O)NCC(=O)O)c(O)c2ccc(Oc3ccccc3)cc21 [crystal form II, 2-(4-hydroxy-1-methyl-2-oxo-7-phenoxy-1,2-dihydroquinoline-3-carboxamido)acetic acid]

— patent publication US12715846B2, “Crystal form of quinolinone compound and use thereof” (SUNSHINE LAKE PHARMA CO., LTD., priority 2019, dated 2026)
